Laboratory results as given in ChEMBL document CHEMBL1201862, “PubChem BioAssay data set” (2004).
Calls of active or inactive are those of the source.

Key:
[1] = target: 1-phosphatidylinositol 4,5-bisphosphate phosphodiesterase gamma-1 (Homo sapiens, UniProt P19174); experiment: Counterscreen for inhibitors of phospholipase C isozymes (PLC-B3): Fluorescence-based biochemical high throughput dose response assay to identify inhibitors of phospholipase C isozymes (PLC-gamma1).
[2] = target: 1-phosphatidylinositol 4,5-bisphosphate phosphodiesterase beta-3 (Homo sapiens, UniProt Q01970); experiment: Fluorescence-based biochemical high throughput dose response assay to identify inhibitors of phospholipase C isozymes (PLC-B3).
Sequence of 1-phosphatidylinositol 4,5-bisphosphate phosphodiesterase beta-3 (Q01970 whole entry): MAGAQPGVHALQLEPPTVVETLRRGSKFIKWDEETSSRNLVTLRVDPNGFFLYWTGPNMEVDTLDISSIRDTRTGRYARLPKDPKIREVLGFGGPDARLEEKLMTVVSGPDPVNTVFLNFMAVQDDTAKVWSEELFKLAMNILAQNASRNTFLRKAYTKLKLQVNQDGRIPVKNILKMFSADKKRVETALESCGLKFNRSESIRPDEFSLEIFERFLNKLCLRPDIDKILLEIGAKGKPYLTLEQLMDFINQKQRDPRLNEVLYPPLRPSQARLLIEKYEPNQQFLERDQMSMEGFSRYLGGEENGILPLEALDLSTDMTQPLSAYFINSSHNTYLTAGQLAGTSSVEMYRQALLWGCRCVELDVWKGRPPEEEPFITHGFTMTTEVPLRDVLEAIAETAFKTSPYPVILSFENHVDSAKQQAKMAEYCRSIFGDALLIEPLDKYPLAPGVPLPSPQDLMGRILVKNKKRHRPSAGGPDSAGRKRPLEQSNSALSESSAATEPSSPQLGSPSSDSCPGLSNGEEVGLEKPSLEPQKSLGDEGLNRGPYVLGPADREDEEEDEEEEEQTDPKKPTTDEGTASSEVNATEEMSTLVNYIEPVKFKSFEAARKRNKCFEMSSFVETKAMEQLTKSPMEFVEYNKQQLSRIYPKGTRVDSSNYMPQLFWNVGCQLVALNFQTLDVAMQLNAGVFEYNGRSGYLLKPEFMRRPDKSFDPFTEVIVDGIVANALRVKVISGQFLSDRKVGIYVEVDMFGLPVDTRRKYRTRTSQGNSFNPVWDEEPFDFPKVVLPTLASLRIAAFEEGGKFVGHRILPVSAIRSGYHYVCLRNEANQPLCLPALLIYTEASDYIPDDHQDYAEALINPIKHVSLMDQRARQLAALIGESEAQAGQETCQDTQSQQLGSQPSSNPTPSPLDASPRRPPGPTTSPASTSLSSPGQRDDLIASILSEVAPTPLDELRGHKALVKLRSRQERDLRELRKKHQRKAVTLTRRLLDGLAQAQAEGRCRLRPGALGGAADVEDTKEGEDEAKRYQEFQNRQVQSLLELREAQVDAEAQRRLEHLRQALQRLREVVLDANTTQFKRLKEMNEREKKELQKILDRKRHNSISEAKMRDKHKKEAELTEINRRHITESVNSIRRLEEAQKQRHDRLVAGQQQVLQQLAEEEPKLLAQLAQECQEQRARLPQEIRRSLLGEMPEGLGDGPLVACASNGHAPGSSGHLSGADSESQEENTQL

cells [3] = experiment: cells
Kallikrein-7 = Kallikrein-7 (Homo sapiens, UniProt P49862); experiment: Fluorescence Intensity-based biochemical primary high throughput dose response assay to identify activators of kallikrein-7 (K7) zymogen.
Sequence of Kallikrein-7 (P49862 whole entry): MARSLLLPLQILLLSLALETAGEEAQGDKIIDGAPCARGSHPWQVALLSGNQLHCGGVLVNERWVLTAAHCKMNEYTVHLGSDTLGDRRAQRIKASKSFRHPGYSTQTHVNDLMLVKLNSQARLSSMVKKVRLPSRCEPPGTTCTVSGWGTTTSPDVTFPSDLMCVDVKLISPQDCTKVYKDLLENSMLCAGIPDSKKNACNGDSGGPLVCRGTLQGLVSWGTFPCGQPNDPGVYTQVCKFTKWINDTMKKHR

[4] = EDANS-DABCYL fluorescence interference, concentration series, dose response, artefact control for kallikrein-7 zymogen activator project, biochemical, fluorescence intensity, triplicate (AID 720493)
HeLa = experiment: HeLa cell cytotoxicity, dose response, cytotoxicity control, ATP luminescence, cherry-pick samples (AID 687004); type: functional, cell-based; settings: Homo sapiens
[5] = target: Delta-type opioid receptor (Homo sapiens, UniProt P41143); experiment: Late-stage results from the probe development effort to identify antagonists of OPRK1: fluorescence-based cell-based dose response OPRD1 counterscreen.; type: functional
Sequence of Delta-type opioid receptor (P41143 whole entry): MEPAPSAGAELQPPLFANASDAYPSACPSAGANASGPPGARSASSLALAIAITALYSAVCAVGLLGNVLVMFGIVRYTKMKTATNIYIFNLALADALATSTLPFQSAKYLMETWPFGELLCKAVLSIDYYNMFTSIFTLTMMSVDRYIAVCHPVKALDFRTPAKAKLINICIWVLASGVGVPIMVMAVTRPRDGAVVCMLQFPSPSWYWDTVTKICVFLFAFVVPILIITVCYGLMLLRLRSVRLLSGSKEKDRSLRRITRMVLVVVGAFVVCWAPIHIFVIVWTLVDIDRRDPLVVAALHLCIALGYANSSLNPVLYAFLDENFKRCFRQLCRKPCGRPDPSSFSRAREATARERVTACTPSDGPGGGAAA

Mu-type opioid receptor = Mu-type opioid receptor (Homo sapiens, UniProt P35372); experiment: Late-stage results from the probe development effort to identify antagonists of OPRK1: luminescence-based cell-based dose response OPRM1 counterscreen.; type: functional
Sequence of Mu-type opioid receptor (P35372 whole entry): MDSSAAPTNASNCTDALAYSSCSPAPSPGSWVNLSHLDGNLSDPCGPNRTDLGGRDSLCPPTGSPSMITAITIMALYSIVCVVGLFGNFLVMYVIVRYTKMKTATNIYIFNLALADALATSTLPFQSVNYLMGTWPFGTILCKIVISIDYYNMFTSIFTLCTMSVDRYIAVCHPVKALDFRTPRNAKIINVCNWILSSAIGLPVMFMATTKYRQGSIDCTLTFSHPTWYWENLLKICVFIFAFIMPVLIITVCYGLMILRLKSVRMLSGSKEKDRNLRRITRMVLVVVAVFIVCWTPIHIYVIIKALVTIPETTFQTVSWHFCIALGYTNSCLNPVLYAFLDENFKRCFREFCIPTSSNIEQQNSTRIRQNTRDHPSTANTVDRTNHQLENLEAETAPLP

[6] = inhibitors of firefly luciferase expression or activity, dose response, H4 neuroglioma cells, luminescence (AID 1990); type: functional, cell-based
[7] = luciferase reporter signal reduction – luminescence, H4-C neuroglioblastoma cells, dose response (AID 2458); type: functional, cell-based;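 note: H4 neuroglioblastoma cells stably carrying a luciferase reporter gene fusion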
[8] = test system: Streptococcus sp. 'group A'; experiment: growth inhibition of control SK(-) GAS strain, dose response, counter-screen for streptokinase expression inhibitor project, luminescence, kanamycin, BacTiterGlo, confirmation (AID 1900); type: functional, organism-based
BJ [9] = experiment: cytotoxicity toward BJ-TERT fibroblasts, dose response, cell-based, RAS-independent, luminescence (AID 1933); type: functional; settings: Homo sapiens
cells [10] = type: functional, cell-based
[11] = Luminescence Cell-Based Dose Response HTS to Identify Inhibitors of 5'UTR Stem-Loop Driven Prion Protein mRNA Translation in H4 Neuroglioblastoma Cells. [Related pubchem assays: 1827 (Project Summary), 1813 (Primary HTS)]; type: functional
[12] = inhibitors of SNCA 5'UTR-driven reporter translation, confirmation, H4 neuroglioma cells, luminescence (AID 1988); type: functional, cell-based
Streptokinase A = target: T1, Streptokinase A (Streptococcus pyogenes serotype M1, UniProt P10520); experiment: S. pyogenes streptokinase expression inhibitors, potency, dose response, plasminogen activation absorbance, OD405 (AID 1914); type: functional, Streptococcus pyogenes M1 GAS;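 note: secreted streptokinase activity via plasminogen activation per viability signal from cell pellet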
T1 sequence (P10520 whole entry): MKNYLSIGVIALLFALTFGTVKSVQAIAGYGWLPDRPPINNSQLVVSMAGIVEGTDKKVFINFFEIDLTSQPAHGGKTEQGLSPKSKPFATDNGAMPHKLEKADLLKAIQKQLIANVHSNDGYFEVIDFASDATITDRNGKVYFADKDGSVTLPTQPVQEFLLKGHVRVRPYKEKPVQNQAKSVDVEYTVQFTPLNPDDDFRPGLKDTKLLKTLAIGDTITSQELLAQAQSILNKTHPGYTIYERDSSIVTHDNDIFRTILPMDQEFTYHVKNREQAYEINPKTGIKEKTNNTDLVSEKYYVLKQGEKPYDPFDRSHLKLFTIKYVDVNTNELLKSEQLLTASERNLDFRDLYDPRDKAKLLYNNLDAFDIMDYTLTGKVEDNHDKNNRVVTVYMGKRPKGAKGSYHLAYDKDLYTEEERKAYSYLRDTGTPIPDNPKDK

BJ [13] = experiment: cells; type: functional, cell-based; settings: Homo sapiens
BJ [14] = experiment: cytotoxicity toward BJ-TERT-LT-ST fibroblasts, dose response, cell-based, RAS-independent, luminescence (AID 1935); type: functional; settings: Homo sapiens;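 note: BJ fibroblasts immortalized with TERT plus LT and ST oncogenes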
[15] = cytotoxicity toward DRD oncogenic fibroblasts, dose response, cell-based, non-viral oncogenic, luminescence (AID 1934); type: functional; settings: Homo sapiens
Streptococcus = experiment: Group A Streptococcus viability loss, dose response, counter-screen for streptokinase expression inhibitor project, luminescence, BacTiterGlo (AID 1915); type: functional, organism-based;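 note: potency for reduction of bacterial viability or growth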
[16] = inhibitors of SNCA 5'UTR-driven translation, confirmation, luminescence, H4 neuroglioblastoma cells, dose confirmation (AID 2454); type: functional, cell-based;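 note: H4 neuroglioblastoma cells carrying an alpha-synuclein 5'UTR luciferase reporter; potency for inhibition of the luciferase signal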
HEK293 = experiment: inhibitors of LMP1-driven NF-kB reporter, dose response, cell-based, HEK293, luciferase, cherry-pick (AID 588343); type: functional; settings: Homo sapiens
[17] = target: Heat shock protein HSP 90-alpha (Homo sapiens, UniProt P07900); type: functional, organism-based
BJ [18] = experiment: cytotoxicity toward Ras-transformed BJeLR fibroblasts, dose response, cell-based, alamar blue fluorescence, cherrypicked samples (AID 2631); type: functional; settings: Homo sapiens;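 note: confirmatory dose-response assay in RAS-dependent BJ fibroblasts engineered with TERT, LT and ST, with cytotoxicity read by fluorescence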
INS1 = experiment: beta cell apoptosis inhibitors, cytokine rescue, dose response, luminescence, retest (AID 449756); type: functional, cell-based; settings: Rattus norvegicus;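 note: cell death triggered by IL-1 beta plus TNF-alpha plus IFN-gamma mixture; protective hits raise ATP signal compared with cytokine alone wells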
[19] = miR-122 activators in hepatoma reporter cells, dose response, cell-based, Huh7 psiCHECK-miR122, Renilla luciferase, cherry-picked (AID 651956); type: functional;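 note: huh7 hepatoma cells stably carrying a psiCHECK-2 miR-122 sensor plasmid; renilla luciferase signal reporting endogenous miR-122 activity after 48 h compound exposure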
[20] = HEK293T cytotoxicity, dose response, cytotoxicity control for miR-122 modulator project, cell-based, inhibitor set, cherry-pick, set 2 (AID 720697); type: functional
[21] = HEK293T cytotoxicity, dose response, cytotoxicity control for miR-122 modulator project, cell-based, activator set, cherry-pick (AID 720690); type: functional;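 note: HEK293T human cells scored for general mammalian cytotoxicity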

Sequence of 1-phosphatidylinositol 4,5-bisphosphate phosphodiesterase gamma-1 (P19174 whole entry): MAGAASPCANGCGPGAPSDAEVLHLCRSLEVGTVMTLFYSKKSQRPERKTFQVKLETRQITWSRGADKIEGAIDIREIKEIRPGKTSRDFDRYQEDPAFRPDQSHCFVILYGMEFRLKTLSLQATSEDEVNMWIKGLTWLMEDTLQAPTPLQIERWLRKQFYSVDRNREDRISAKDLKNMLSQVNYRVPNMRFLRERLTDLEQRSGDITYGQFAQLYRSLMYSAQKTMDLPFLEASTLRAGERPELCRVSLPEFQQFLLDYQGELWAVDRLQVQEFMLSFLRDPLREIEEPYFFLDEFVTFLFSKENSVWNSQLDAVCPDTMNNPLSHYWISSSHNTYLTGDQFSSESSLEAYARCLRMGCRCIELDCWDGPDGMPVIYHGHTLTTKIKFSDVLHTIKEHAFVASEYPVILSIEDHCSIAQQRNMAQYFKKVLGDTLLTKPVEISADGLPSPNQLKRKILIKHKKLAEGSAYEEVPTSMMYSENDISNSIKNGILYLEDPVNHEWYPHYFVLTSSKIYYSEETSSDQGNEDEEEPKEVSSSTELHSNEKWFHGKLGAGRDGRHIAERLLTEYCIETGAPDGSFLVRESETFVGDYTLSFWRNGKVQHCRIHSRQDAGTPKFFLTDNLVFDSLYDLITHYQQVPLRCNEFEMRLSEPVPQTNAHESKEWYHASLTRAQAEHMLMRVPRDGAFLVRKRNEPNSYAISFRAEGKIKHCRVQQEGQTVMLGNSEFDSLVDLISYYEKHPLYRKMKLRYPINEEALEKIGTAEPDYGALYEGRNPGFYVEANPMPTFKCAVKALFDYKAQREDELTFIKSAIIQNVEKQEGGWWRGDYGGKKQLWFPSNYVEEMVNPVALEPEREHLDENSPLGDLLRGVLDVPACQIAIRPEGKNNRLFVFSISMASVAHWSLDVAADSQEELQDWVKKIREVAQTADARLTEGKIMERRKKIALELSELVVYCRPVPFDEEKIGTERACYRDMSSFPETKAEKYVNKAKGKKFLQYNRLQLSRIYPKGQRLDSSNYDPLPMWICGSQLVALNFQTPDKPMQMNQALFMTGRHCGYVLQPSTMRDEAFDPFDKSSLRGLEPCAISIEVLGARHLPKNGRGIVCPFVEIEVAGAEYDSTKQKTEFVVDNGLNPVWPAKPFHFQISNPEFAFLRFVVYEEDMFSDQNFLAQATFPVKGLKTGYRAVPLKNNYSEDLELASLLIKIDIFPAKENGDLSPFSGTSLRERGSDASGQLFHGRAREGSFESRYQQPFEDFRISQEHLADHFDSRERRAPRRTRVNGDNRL

O=C(N/N=C/c1ccc(OC(=O)c2ccccc2)cc1)c1cccc(O)c1
IC50 [1]: > 122 µM (inactive)
IC50 [2]: > 122 µM (inactive)

CCCCN1C=C(C(=O)OC)C(c2ccccc2Cl)C(C(=O)OC)=C1
AC50 (cells [3]): 2.12 µM (active)

CCC1CCCCN1Cc1c(O)ccc2c(=O)c(-c3ccccc3)coc12 (stereo not drawn)
EC50 (Kallikrein-7): > 69.5 µM (inactive)
EC50 [4]: > 7.72 µM (active)

COc1cccc(S(=O)(=O)Nc2ccc3c(c2)OC[C@H](C)NC[C@@H](C)[C@H](OC)CN(C)C3=O)c1
AC50 (HeLa): > 52 µM (inactive)

COC(=O)c1cc(Br)cnc1N1CCC(NC2CCCCC2OC)CC1 (stereo not drawn)
IC50 [5]: > 50 µM (inactive)
IC50 (Mu-type opioid receptor): 12 µM (inactive)

Cc1sc2ncnc(N/N=C/c3ccccc3O)c2c1C
EC50 [6]: 7.52 µM (active)
EC50 [7]: 1.17 µM (active)
EC50 [8]: 1.97 µM (active)
EC50 (BJ [9]): 5.5 µM (inconclusive)
EC50 (cells [10]): 1.22 µM (active)
EC50 [11]: 20.5 µM (active)
EC50 [12]: < 0.1 µM (active)
EC50 (Streptokinase A): 8.21 µM (active)
EC50 (BJ [13]): 4.2 µM (active)
EC50 (BJ [14]): 5.79 µM (inconclusive)
EC50 [15]: 3.5 µM (active)
EC50 (Streptococcus): 6.53 µM (active)
EC50 [16]: 0.993 µM (active)
AC50 (HEK293): 9.16 µM (active)
AC50 [17]: 2.1 µM (active)
EC50 (BJ [18]): 4.53 µM (active)
AC50 (INS1): 0.642 µM (active)
AC50 [19]: 8.43 µM (active)
AC50 [20]: 1.19 µM (active)
AC50 [21]: 3.28 µM (active)
